Assay results taken from patent publication US7338932B2, “Methods of modulating functions of polypeptide GalNAc-transferases and of screening test substances to find agents herefor, pharmaceutical compositions comprising such agents and the use of such agents for preparing medicaments” (Glycozym APS, priority 2000, dated 2008).
Read-outs that look alike come from different tables or passages of the source. Ends that are not written are not given here.

Experiments:
GalNAc-T3 = biological target: T1, GalNAc-T3 (Homo sapiens, UniProt Q14435); test: GalNAc-T3 transferase activities with UDP-GalNAc or UDP-Gal donor (EA2 acceptor, peptide panel); format: biochemical; conditions: peptide as acceptor substrate
T1 construct: Soluble, secreted expression constructs of human GalNAc-transferases GalNAc-T1, -T2, -T3, -T4, -T6, -T7, and -T11; made in house; host or cells: insect cells (baculovirus)
T1 sequence (Q14435 38-633 limits assumed): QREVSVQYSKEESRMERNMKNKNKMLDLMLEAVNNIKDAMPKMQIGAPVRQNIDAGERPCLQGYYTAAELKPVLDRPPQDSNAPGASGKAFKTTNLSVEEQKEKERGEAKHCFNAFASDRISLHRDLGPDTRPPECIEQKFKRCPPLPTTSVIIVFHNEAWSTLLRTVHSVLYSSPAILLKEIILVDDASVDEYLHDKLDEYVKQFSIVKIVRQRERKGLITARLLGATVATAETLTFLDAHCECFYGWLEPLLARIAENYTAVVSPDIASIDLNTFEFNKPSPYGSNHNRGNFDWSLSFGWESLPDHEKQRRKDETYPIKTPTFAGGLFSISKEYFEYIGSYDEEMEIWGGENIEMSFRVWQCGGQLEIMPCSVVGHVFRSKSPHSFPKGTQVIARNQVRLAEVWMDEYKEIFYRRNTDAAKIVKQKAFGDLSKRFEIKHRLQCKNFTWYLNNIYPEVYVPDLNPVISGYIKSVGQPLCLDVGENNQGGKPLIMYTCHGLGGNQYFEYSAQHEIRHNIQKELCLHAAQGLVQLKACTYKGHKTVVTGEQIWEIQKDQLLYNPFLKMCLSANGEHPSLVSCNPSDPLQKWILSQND
Description: (§1) Standard reaction mixtures (50 μl final volume) contained 25 mM cocadylate (pH 7.4), 10 mM MnCl2, 0.25% Triton X-100, 200 μM UDP-[^14C]-GalNAc (2,000 cpm/nmol) (Amersham), 200-500 μM acceptor peptides. Products were quantified by scintillation counting after chromatography on Dowex-1, octadecyl silica cartridges (Bakerbond), or HPLC (PC3.2/3 or mRPC C2/C18 SC2.1/10 Pharmacia, Smart System). […] Glycopeptides were purified on Supelclean LC-18 columns (1 ml, Supelco), and the number of GalNAc residues incorporated evaluated by MALDI-TOF mass spectrometry. The enzyme sources used were semipurified as previously described by successive sequential ion-exchange chromatographies on Amberlite (IRA95, Sigma) or DEAE Sephacel (Pharmacia), S-Sepharose Fast Flow (Pharmacia), and Mini-S™ (PC 3.2/3, Pharmacia) using the Smart System (Pharmacia) (28). Secreted GalNAc-T4 was obtained from a stably transfected CHO line (CHO/GalNA-T4/21A) (8) grown in roller bottles in HAMS F12 supplemented with 10% Fetal Bovine Serum. The experiments illustrated in FIG. 1 was performed with recombinant secreted GalNAc-T4 obtained from a stably transfected CHO line (8). Experiments illustrated in FIGS. 2 and 3 were performed with secreted GalNAc-T4 expressed in High Five cells grown in serum-free medium (8). Structural analysis of glycopeptides were performed by a combination of PFPA (pentafluoropropionic acid) hydrolysis and MALDI-TOF mass spectrometry as previously described (40). Secreted GalNAc-T7 was obtained from infected High Five™ cells grown in serum-free medium (Invitrogen) in upright roller bottles shaken 140 rpm in waterbaths at 27° C. GalNAc-T7 was not purified by Mini-S as the yields from cationic chromatography were low due to its low pI (6.4).
(§2) Galactosyl transferring activities of GalNAc-T1, -T2, and -T3, were assayed with a panel of acceptor peptides in standard reaction mixtures containing 100 μM UDP-Gal instead of UDP-GalNAc. […] Further, analysis was performed with 10 mM α-D-GalNAc-1-benzyl, αGlcNAc-benzyl, and fully occupied GalNAc-glycopeptide, GalNAC6TAP25, at 5 mM.

GalNAc-T2 = biological target: T2, GalNAc-T2 (Homo sapiens, UniProt Q10471); test: GalNAc-T2 transferase activities with UDP-GalNAc or UDP-Gal donor (Muc2 acceptor, peptide panel); format: biochemical; conditions: peptide as acceptor substrate
T2 construct: Soluble, secreted expression constructs of human GalNAc-transferases GalNAc-T1, -T2, -T3, -T4, -T6, -T7, and -T11; made in house; host or cells: insect cells (baculovirus)
Description: as §1, §2

[1] = biological target: T3, secreted soluble GalNAc-T2 (sT2) (Homo sapiens, UniProt Q10471); test: Direct binding ELISA to GalNAc-MUC1 glycopeptide, competitive inhibition, sT2
T3 construct: HIS-tagged secreted human GalNAc-T2 and -T4 were prepared from pAC-GP67-T2-sol and pAC-GP67-T4-sol cDNA; 6xHis (N); thrombin cleavage site (N); T7 tag (N); made in house; host or cells: High Five insect cells (baculovirus)
Description: (§3) Protein biotinylation was made as previously reported^62. The pH of 1 ml purified protein (0.3 mg/ml) in PBS was adjusted to pH 9 with 1 M NaOH and 40 μl N-hydroxy-succinimidobiotin (Sigma) dissolved in DMF (10 mg/ml) was added. The solution was mixed end-over-end for 2 hours at room temperature, and dialyzed three times against PBS and an equal volume of glycerol was added. The biotinylated proteins were stored at −20° C. in 50% glycerol until use.
(§4) Direct binding ELISA assay was developed as follows: Polystyrene microtiter plates (Maxisorb, Nunc, Denmark) were coated with peptides or enzymatically glycosylated glycopeptides in PBS overnight at 4° C. Plates were washed and blocked with 0.1% Tween20 and 0.2% BSA in PBS for 1 h at room temperature, followed by incubation with biotinylated proteins in PBS with 0.05% Tween20 for 2 h at room temperature. After four washes with PBS, plates were incubated with 1:2,000 dilution streptavidin-HRP (Sigma) in PBS for 30 min at room temperature and washed four times with PBS. Development was performed with 0.5 mg/ml o-phenylenediamine and 0.02% H2O2 at room temperature for 15 min, and reaction stopped by adding 100 μl/well of 0.5 N H2SO4. Competitive inhibition assays were done at end-point titers of GalNAc-transferase proteins with one hour preincubations with inhibitor.
(§5) In binding studies using lectins without biotinylation antibodies to the HIS-tag and the T7-tag, or in some experiments antibodies raised to GalNAc-T2 and -T4 enzymes were used to detect binding.

[2] = biological target: T4, GalNAc-T2 lectin domain (T2ld) (Homo sapiens, UniProt Q10471); test: Direct binding ELISA to GalNAc-MUC1 glycopeptide, competitive inhibition, T2ld
T4 construct: made in house; host or cells: High Five insect cells (baculovirus, pAcGP67-A)
T4 sequence (Q10471 408-571): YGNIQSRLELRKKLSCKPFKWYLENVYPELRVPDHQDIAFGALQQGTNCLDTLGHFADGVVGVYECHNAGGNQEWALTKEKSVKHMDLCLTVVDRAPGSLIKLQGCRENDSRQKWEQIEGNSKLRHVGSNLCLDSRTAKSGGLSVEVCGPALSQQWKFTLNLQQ
Description: as §3, §4, §5

[3] = biological target: Helix Pomatia lectin (HPA) (Helix pomatia, UniProt Q2F1K8); test: Direct binding ELISA, competitive inhibition, Helix Pomatia lectin control; conditions: read-out: Concentration required for 50% inhibition (IC50), HPA; control plant lectin
Excerpt: Glycopeptides were purified by C-18 reverse phase HPLC. Peptides were custom synthesized by Neosystems (Strasbourg). Biotinylated Helix Pomatia lectin (HPA) was from KemEnTec (Denmark). Anti-MUC1 HMFG2 monoclonal antibody was a generous gift from Joyce Taylor-Papadimitriou. Anti-MUC1 SE5 monoclonal antibody was developed by immunizing Balb/c mice with 60-mer MUC1 tandem repeat peptide glycosylated with 5 moles GalNAc per repeat. Monoclonal antibodies to the lectin domains of human GalNAc-T2 and -T4 were developed as previously described^8, 63.
as §4
Inhibition experiments were used to further define the binding specificity of GalNAc-T2 and -T4 secreted soluble enzymes as well as lectin domains compared to Helix Pomatia lectin (Table VII).

[4] = biological target: T5, secreted soluble GalNAc-T4 (sT4) (Homo sapiens, UniProt Q8N4A0); test: Direct binding ELISA to GalNAc-MUC1 glycopeptide, competitive inhibition, sT4; conditions: binding to GalNAc-MUC1 glycopeptide
T5 construct: using the GalNAc-T4-sol construct that encodes residues 32-578 inserted into pT7T3U19; 6xHis (N); thrombin cleavage site (N); T7 tag (N); made in house; host or cells: High Five insect cells (baculovirus)
Description: as §3, §4, §5

[5] = biological target: T6, GalNAc-T4 lectin domain (T4ld) (Homo sapiens, UniProt Q8N4A0); test: Direct binding ELISA to GalNAc-MUC1 glycopeptide, competitive inhibition, T4ld
T6 construct: made in house; host or cells: High Five insect cells (baculovirus, pAcGP67-A)
Description: as §3, §4, §5

GalNAc-T4 = biological target: T7, GalNAc-T4 (Homo sapiens, UniProt Q8N4A0); test: Inhibition of glycosylation dependent (GalNAc-glycopeptide) activity of GalNAc-T4, MALDI-TOF time-course; format: biochemical; conditions: […] free sugar
T7 construct: using the GalNAc-T4-sol construct that encodes residues 32-578 inserted into pT7T3U19; made in house; host or cells: High Five insect cells (baculovirus, pAcGP67)
Description: MALDI-TOF time-course in terminal reactions were performed in reactions of 25 μl containing 2.5 nmol acceptor (glyco)peptide, 40 nmol UDP-GalNAc, and 0.4 μg GalNAc-T4. Sampling of reactions (1 μl) were purified by nano-scale reversed-phase chromatography (Poros R3, PerSeptive Biosystem) and applied directly to the probe with matrix (41). The amount of GalNAc-transferase added was adjusted so that the reaction with the appropriate peptide was near completion in six hours. Reactions were incubated at 37° C. in a shaker bath. At times 0, 2 hours, and 16 hours a 1 μl aliquot was taken and purified. Mass spectra were acquired on either Voyager-DE mass spectrometer equipped with delayed extraction (Perseptive Biosystem Inc.). The matrix used was 2,5-dihydroxybenzoic acid (10 mg/ml, Hewlett-Packard) dissolved in a 2:1 mixture of 0.1% trifluoroacetic acid in 30% aqueous acetonitrile (Rathburn Ltd.).
Quantification of purified proteins was done by Coomassie stained SDS-PAGE and titration of immunoreactivity with the monoclonal antibody, UH6(4G2) (8). […] Wild-type GalNAc-T4 and mutant GalNAc-T4, GalNAc-T4^459H, were analysed with unglycosylated peptides (represented by PSGL-1) or GalNAc glycosylated glycopeptides (represented by GalNAc3TAP25V21) in reactions of 25 μl containing 2.5 nmol acceptor (glyco)peptide, 40 nmol UDP-GalNAc, and 0.4 μg GalNAc-T4. Time-course assays were motioned by MALDI-TOF. Sampling of reactions (1 μl) were purified by nano-scale reversed-phase chromatography (Poros R3, PerSeptive Biosystem) and applied directly to the probe with matrix. Evaluation of inhibition of the glycopeptide specificity of wild-type GalNAc-T4 with free sugars was performed to establish if the lectin domain recognized carbohydrate. […] Further, analysis was performed with 10 mM α-D-GalNAc-1-benzyl, αGlcNAc-benzyl, and fully occupied GalNAc-glycopeptide, GalNAc6TAP25, at 5 mM.

[6] = read-out: Concentration required for 50% inhibition (IC50), sT2
[7] = read-out: Concentration required for 50% inhibition (IC50), T2ld
[8] = read-out: Concentration required for 50% inhibition (IC50), sT4
[9] = read-out: Concentration required for 50% inhibition (IC50), T4ld

In the case of “EA2: acceptor peptide PTTDSTTPAPTTK derived from rat submandibular gland mucin”, the “GalNAc-T3 activity with UDP-Gal by acceptor peptide” value (GalNAc-T3) is reported as 6.8 nmol/min/mL and the “GalNAc-T2 activity with UDP-Gal by acceptor peptide” value (GalNAc-T2) is reported as 1.5 nmol/min/mL.

`O=c1ccn([C@@H]2O[C@H](COP(=O)(O)OP(=O)(O)O)[C@@H](O)[C@H]2O)c(=O)[nH]1` [UDP] gave an IC50 [1, 6] of over 100 mM, an IC50 [2, 7] of over 100 mM and an IC50 [3] of over 100 mM. The IC50 [4, 8] was over 100 mM and the IC50 [5, 9] was over 100 mM.

Work on `CO[C@H]1O[C@H](CO)[C@H](O)[C@H](O)[C@H]1O` [MeαGal] yielded an IC50 [1, 6] of over 100 mM, an IC50 [2, 7] of over 100 mM and an IC50 [3] of over 100 mM. The IC50 [4, 8] was 50 mM and the IC50 [5, 9] was over 100 mM.

In the case of `OC[C@H]1OC(O)[C@H](O)[C@@H](O)[C@H]1O` (stereo partly drawn) [Gal], the “Inhibition of glycosylation dependent specificity of GalNAc-T4” value (GalNAc-T4) is reported as “failed to show significant inhibition”.

With `CC(=O)N[C@H]1[C@H](OCc2ccccc2)O[C@H](CO)[C@@H](O)[C@@H]1O` [BzlβGlcNAc] the IC50 [1] was over 100 mM, the IC50 [2] was over 100 mM and the IC50 [3] was over 20 mM. The IC50 [4] was over 100 mM and the IC50 [5] was over 100 mM.

“Muc7: acceptor peptide Ac-CPPTPSATTPAPPSSSAPPETTAA derived from human salivary gland mucin MUC7” was tested, and the “GalNAc-T3 activity with UDP-Gal by acceptor peptide” value (GalNAc-T3) was 0.1 nmol/min/mL and the “GalNAc-T2 activity with UDP-Gal by acceptor peptide” value (GalNAc-T2) was 13 nmol/min/mL.

With `C[C@@H]1OC(O)[C@@H](O)[C@H](O)[C@@H]1O` (stereo partly drawn) [Fuc] the “Inhibition of glycosylation dependent specificity of GalNAc-T4” value (GalNAc-T4) was “failed to show significant inhibition”.
